Like-named read-outs stand apart in the source and are kept apart here.
Tests used:
ROCK1 = target: T1, ROCK1 (Homo sapiens, UniProt Q13464); test: ROCK1 kinase binding affinity, DiscoverX KINOMEscan KdELECT; conditions: 11-point 3-fold dilution
T1 construct: T7 phage fusion (kinase-tagged phage) or DNA tag for qPCR detection
Description: (§1) 1. ROCK1 and ROCK2 kinase assays: The ROCK1 and ROCK2 kinase binding affinities of compounds in this disclosure were determined by DiscoverX's KINOMEscan™ KdELECT technology (https://www.discoverx.com/kinomescan-elect-kinase-screening-and-profiling-services): Kinase-tagged T7 phage strains were prepared in an E. coli host derived from the BL21 strain. E. coli were grown to log-phase and infected with T7 phage and incubated with shaking at 32° C. until lysis. The lysates were centrifuged and filtered to remove cell debris. The remaining kinases were produced in HEK-293 cells and subsequently tagged with DNA for qPCR detection. […] The liganded beads were blocked with excess biotin and washed with blocking buffer (SeaBlock (Pierce), 1% BSA, 0.05% Tween 20, 1 mM DTT) to remove unbound ligand and to reduce nonspecific binding. […] Kds were determined using an 11-point 3-fold compound dilution series with three DMSO control points. […] The compounds were then diluted directly into the assays such that the final concentration of DMSO was 0.9%. All reactions performed in polypropylene 384-well plate. Each was a final volume of 0.02 ml. […] The kinase concentration in the eluates was measured by qPCR.

ROCK2 = target: T2, ROCK2 (Homo sapiens, UniProt O75116); test: ROCK2 kinase binding affinity, DiscoverX KINOMEscan KdELECT; conditions: for ROCK2 Selectivity: selectivity for ROCK2 over ROCK1 from Kd
T2 construct: T7 phage fusion (kinase-tagged phage) or DNA tag for qPCR detection
Description: as §1

[1] = KINOMEscan KdELECT, 11-point 3-fold dilution, read-out: Kd (μM) ROCK2

T2 sequence (O75116 whole entry, the tested form may be a part): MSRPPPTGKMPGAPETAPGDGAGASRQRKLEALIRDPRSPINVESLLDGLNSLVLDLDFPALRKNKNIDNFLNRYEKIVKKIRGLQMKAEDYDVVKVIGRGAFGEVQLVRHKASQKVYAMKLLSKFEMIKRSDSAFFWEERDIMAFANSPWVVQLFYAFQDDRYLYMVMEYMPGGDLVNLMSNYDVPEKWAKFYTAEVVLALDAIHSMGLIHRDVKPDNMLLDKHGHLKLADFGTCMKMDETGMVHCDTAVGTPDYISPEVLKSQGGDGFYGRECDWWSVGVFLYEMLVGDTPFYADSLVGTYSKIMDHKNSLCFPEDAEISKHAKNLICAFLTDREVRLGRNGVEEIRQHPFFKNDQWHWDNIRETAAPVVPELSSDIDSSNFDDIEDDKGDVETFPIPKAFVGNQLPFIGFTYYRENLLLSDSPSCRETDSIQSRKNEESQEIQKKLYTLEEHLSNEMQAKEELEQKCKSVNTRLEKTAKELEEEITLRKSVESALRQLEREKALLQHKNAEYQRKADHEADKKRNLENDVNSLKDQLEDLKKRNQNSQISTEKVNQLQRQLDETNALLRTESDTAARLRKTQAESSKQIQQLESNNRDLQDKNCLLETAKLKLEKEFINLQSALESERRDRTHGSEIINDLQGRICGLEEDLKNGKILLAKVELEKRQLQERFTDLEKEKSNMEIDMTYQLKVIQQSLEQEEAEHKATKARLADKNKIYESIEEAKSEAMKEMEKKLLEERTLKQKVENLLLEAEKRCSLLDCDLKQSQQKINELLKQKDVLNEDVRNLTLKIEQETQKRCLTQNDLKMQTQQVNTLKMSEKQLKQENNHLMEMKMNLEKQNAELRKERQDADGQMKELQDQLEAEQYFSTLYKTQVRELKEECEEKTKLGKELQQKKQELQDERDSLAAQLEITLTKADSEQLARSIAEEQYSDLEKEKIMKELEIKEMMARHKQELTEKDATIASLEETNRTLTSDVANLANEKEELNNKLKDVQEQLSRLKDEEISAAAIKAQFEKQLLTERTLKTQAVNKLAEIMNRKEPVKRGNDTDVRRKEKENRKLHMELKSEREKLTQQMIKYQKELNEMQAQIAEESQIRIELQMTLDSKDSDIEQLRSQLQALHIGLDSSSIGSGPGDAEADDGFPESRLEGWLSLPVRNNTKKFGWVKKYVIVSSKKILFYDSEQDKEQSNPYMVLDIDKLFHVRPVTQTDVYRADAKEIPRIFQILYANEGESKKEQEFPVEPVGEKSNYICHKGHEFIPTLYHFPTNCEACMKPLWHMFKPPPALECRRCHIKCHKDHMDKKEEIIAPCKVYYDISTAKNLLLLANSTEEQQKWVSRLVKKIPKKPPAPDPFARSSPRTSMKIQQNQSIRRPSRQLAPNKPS
T1 sequence (Q13464 whole entry, the tested form may be a part): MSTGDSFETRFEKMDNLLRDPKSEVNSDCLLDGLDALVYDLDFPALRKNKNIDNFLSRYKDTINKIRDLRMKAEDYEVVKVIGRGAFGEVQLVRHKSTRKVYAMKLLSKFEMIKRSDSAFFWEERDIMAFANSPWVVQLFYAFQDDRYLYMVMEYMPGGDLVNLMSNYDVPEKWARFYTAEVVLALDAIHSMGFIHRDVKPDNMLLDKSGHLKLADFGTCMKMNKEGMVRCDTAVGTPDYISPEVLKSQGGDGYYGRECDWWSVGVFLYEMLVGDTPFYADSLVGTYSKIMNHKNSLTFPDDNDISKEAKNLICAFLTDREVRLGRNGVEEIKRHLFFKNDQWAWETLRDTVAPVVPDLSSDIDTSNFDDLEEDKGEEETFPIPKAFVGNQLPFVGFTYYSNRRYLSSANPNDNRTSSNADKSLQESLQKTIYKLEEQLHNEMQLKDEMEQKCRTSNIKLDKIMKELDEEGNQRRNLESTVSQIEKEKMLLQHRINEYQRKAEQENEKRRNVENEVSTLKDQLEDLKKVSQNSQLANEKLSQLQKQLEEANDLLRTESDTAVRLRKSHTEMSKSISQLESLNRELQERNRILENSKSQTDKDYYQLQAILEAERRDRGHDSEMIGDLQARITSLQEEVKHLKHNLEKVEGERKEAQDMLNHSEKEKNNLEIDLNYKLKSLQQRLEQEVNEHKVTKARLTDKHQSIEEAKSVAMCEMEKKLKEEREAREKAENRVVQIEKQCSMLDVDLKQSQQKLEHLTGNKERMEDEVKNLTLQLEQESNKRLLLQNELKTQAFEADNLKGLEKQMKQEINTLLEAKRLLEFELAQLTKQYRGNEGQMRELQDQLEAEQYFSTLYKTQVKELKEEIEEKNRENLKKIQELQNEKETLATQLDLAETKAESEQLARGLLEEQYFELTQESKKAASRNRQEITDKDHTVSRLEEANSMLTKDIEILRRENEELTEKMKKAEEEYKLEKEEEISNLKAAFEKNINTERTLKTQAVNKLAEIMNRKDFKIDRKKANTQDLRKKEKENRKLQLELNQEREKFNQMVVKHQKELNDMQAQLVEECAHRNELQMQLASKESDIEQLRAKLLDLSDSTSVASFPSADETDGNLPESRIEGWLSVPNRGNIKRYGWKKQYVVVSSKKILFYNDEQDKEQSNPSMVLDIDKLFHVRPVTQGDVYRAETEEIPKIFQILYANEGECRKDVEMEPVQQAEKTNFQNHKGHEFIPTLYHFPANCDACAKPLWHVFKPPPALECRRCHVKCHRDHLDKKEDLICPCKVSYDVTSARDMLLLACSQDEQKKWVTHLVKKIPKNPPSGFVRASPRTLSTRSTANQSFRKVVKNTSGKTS

Structure (SMILES) | Kd (ROCK1) | Kd (ROCK2; [1]) | ROCK2 Selectivity (ROCK2) | Kd (ROCK2)
O=S1(=O)CC[C@@H](Nc2nccc(-c3nccc(C#Cc4ccc5[nH]ncc5c4)n3)n2)C1 [Ex. 88, (R)-3-((4-((1H-Indazol-5-yl)ethynyl)-[2,4′-bipyrimidin]-2′-yl)amino)tetrahydrothiophene 1,1-dioxide] | 0.1 to 0.99 µM | 0.01 to 0.099 µM | * (<50-fold selectivity for ROCK2) | 
Fc1cc(F)c(F)c(CNc2nccc(-c3nccc(C#Cc4ccc5[nH]nc(F)c5c4)n3)n2)c1 [Ex. 60, 4-((3-Fluoro-1H-indazol-5-yl)ethynyl)-N-(2,3,5-trifluorobenzyl)-[2,4′-bipyrimidin]-2′-amine] | 10 to 100 µM | 1 to 9.9 µM | * (<50-fold selectivity for ROCK2) | 
O[C@H]1CC[C@@H](Nc2nccc(-c3nccc(C#Cc4ccc5[nH]cnc5c4)n3)n2)CC1 [Ex. 95, (1s,4s)-4-((4-((1H-Benzo[d]imidazol-5-yl)ethynyl)-[2,4′-bipyrimidin]-2′-yl)amino)cyclohexanol] | 10 to 100 µM |  | *** (151 to 500-fold selectivity for ROCK2) | 0.01 to 0.099 µM
CC1(O)CN(C(=O)CNc2nccc(-c3nccc(C#Cc4ccc5[nH]ncc5c4)n3)n2)C1 [Ex. 84, 2-((4-((1H-Indazol-5-yl)ethynyl)-[2,4′-bipyrimidin]-2′-yl)amino)-1-(3-hydroxy-3-methylazetidin-1-yl)ethanone] | 1 to 9.9 µM | 0.01 to 0.099 µM | * (<50-fold selectivity for ROCK2) | 
C(#Cc1ccnc(-c2ccnc(NCC3CCCCO3)n2)n1)c1ccc2[nH]ncc2c1 (stereo not drawn) [Ex. 76, 4-((1H-Indazol-5-yl)ethynyl)-N-((tetrahydro-2H-pyran-2-yl)methyl)-[2,4′-bipyrimidin]-2′-amine] | 1 to 9.9 µM | < 0.01 µM | *** (151 to 500-fold selectivity for ROCK2) | 
CC1(CNc2nccc(-c3nccc(C#Cc4ccc5[nH]ncc5c4)n3)n2)CCCO1 (stereo not drawn) [Ex. 53, 4-((1H-Indazol-5-yl)ethynyl)-N-((2-methyltetrahydrofuran-2-yl)methyl)-[2,4′-bipyrimidin]-2′-amine] | 1 to 9.9 µM | 0.01 to 0.099 µM | ** (50 to 150-fold selectivity for ROCK2) | 
O[C@H]1CC[C@H](Nc2nccc(-c3nccc(C#Cc4ccc5[nH]ncc5c4)n3)n2)CC1 [Ex. 63, (1r,4r)-4-((4-((1H-Indazol-5-yl)ethynyl)-[2,4′-bipyrimidin]-2′-yl)amino)cyclohexanol] | 1 to 9.9 µM | < 0.01 µM | *** (151 to 500-fold selectivity for ROCK2) | 
C(#Cc1ccnc(-c2ccnc(N[C@H]3CCOC3)n2)n1)c1ccc2[nH]ncc2c1 [Ex. 62, (S)-4-((1H-Indazol-5-yl)ethynyl)-N-(tetrahydrofuran-3-yl)-[2,4′-bipyrimidin]-2′-amine] | 1 to 9.9 µM | < 0.01 µM | *** (151 to 500-fold selectivity for ROCK2) | 
C[C@H](O)CNc1nccc(-c2nccc(C#Cc3ccc4[nH]ncc4c3)n2)n1 [Ex. 80, (S)-1-((4-((1H-Indazol-5-yl)ethynyl)-[2,4′-bipyrimidin]-2′-yl)amino)propan-2-ol] | 1 to 9.9 µM |  | ** (50 to 150-fold selectivity for ROCK2) | 0.1 to 0.99 µM
O=C(CNc1nccc(-c2nccc(C#Cc3ccc4[nH]ncc4c3)n2)n1)NC12CCC(CC1)C2 [Ex. 2, 2-((4-((1H-Indazol-5-yl)ethynyl)-[2,4′-bipyrimidin]-2′-yl)amino)-N-(bicyclo[2.2.1]heptan-1-yl)acetamide] | 0.1 to 0.99 µM | < 0.01 µM | *** (151 to 500-fold selectivity for ROCK2) | 
Fc1ncccc1CNc1nccc(-c2nccc(C#Cc3cc(F)c4[nH]ncc4c3)n2)n1 [Ex. 42, 4-((7-Fluoro-1H-indazol-5-yl)ethynyl)-N-((2-fluoropyridin-3-yl)methyl)-[2,4′-bipyrimidin]-2′-amine] | 1 to 9.9 µM | 0.01 to 0.099 µM | ** (50 to 150-fold selectivity for ROCK2) | 

Second part, led by results:

Kd (ROCK1) | Kd (ROCK2; [1]) | Structure (SMILES) | ROCK2 Selectivity (ROCK2) | Kd (ROCK2)
0.1 to 0.99 µM | < 0.01 µM | FC(F)(F)c1ccc(CNc2nccc(-c3nccc(C#Cc4ccc5[nH]ncc5c4)n3)n2)nc1 [Ex. 48, 4-((1H-Indazol-5-yl)ethynyl)-N-((5-(trifluoromethyl)pyridin-2-yl)methyl)-[2,4′-bipyrimidin]-2′-amine] | ** (50 to 150-fold selectivity for ROCK2) | 
0.1 to 0.99 µM | 0.01 to 0.099 µM | Fc1nccc(Cl)c1CNc1nccc(-c2nccc(C#Cc3ccc4[nH]ncc4c3)n2)n1 [Ex. 64, 4-((1H-Indazol-5-yl)ethynyl)-N-((4-chloro-2-fluoropyridin-3-yl)methyl)-[2,4′-bipyrimidin]-2′-amine] | * (<50-fold selectivity for ROCK2) | 
1 to 9.9 µM | 0.1 to 0.99 µM | CN(Cc1ccc(F)cn1)c1nccc(-c2nccc(C#Cc3ccc4[nH]ncc4c3)n2)n1 [Ex. 30, 4-((1H-Indazol-5-yl)ethynyl)-N-((5-fluoropyridin-2-yl)methyl)-N-methyl-[2,4′-bipyrimidin]-2′-amine] | * (<50-fold selectivity for ROCK2) | 
0.01 to 0.099 µM | < 0.01 µM | Fc1ncccc1CNc1nccc(-c2nccc(C#Cc3ccc4[nH]ncc4c3)n2)n1 [Ex. 6, 4-((1H-Indazol-5-yl)ethynyl)-N-((2-fluoropyridin-3-yl)methyl)-[2,4′-bipyrimidin]-2′-amine] | * (<50-fold selectivity for ROCK2) | 
0.1 to 0.99 µM | < 0.01 µM | Fc1cnc(CNc2nccc(-c3nccc(C#Cc4ccc5[nH]ncc5c4)n3)n2)c(F)c1 [Ex. 38, 4-((1H-Indazol-5-yl)ethynyl)-N-((3,5-difluoropyridin-2-yl)methyl)-[2,4′-bipyrimidin]-2′-amine] | ** (50 to 150-fold selectivity for ROCK2) | 
0.1 to 0.99 µM | < 0.01 µM | [2H]C([2H])(Nc1nccc(-c2nccc(C#Cc3ccc4[nH]ncc4c3)n2)n1)c1ccccn1 [Ex. 66, 4-((1H-Indazol-5-yl)ethynyl)-N-(pyridin-2-ylmethyl-d2)-[2,4′-bipyrimidin]-2′-amine] | ** (50 to 150-fold selectivity for ROCK2) | 
1 to 9.9 µM | 0.01 to 0.099 µM | C(#Cc1ccnc(-c2ccnc(NCc3ncc[nH]3)n2)n1)c1ccc2[nH]ncc2c1 [Ex. 23, N-((1H-Imidazol-2-yl)methyl)-4-((1H-indazol-5-yl)ethynyl)-[2,4′-bipyrimidin]-2′-amine] | ** (50 to 150-fold selectivity for ROCK2) | 
1 to 9.9 µM | < 0.01 µM | Fc1cc(CNc2nccc(-c3nccc(C#Cc4ccc5[nH]ncc5c4)n3)n2)ccn1 [Ex. 33, 4-((1H-Indazol-5-yl)ethynyl)-N-((2-fluoropyridin-4-yl)methyl)-[2,4′-bipyrimidin]-2′-amine] | *** (151 to 500-fold selectivity for ROCK2) | 
1 to 9.9 µM | 0.1 to 0.99 µM | Cc1cnc(CNc2nccc(-c3nccc(C#Cc4ccc5[nH]ncc5c4)n3)n2)nc1 [Ex. 4, 4-((1H-Indazol-5-yl)ethynyl)-N-((5-methylpyrimidin-2-yl)methyl)-[2,4′-bipyrimidin]-2′-amine] | * (<50-fold selectivity for ROCK2) | 
1 to 9.9 µM | 0.01 to 0.099 µM | Fc1ccc(CCNc2nccc(-c3nccc(C#Cc4ccc5[nH]ncc5c4)n3)n2)nc1 [Ex. 39, 4-((1H-Indazol-5-yl)ethynyl)-N-(2-(5-fluoropyridin-2-yl)ethyl)-[2,4′-bipyrimidin]-2′-amine] | ** (50 to 150-fold selectivity for ROCK2) | 
0.1 to 0.99 µM | 0.01 to 0.099 µM | C(#Cc1ccnc(-c2ccnc(NCc3cc4ccccc4cn3)n2)n1)c1ccc2[nH]ncc2c1 [Ex. 25, 4-((1H-Indazol-5-yl)ethynyl)-N-(isoquinolin-3-ylmethyl)-[2,4′-bipyrimidin]-2′-amine] | * (<50-fold selectivity for ROCK2) | 
0.1 to 0.99 µM | 0.01 to 0.099 µM | O=c1[nH]cccc1CNc1nccc(-c2nccc(C#Cc3ccc4[nH]ncc4c3)n2)n1 [Ex. 21, 3-(((4-((1H-Indazol-5-yl)ethynyl)-[2,4′-bipyrimidin]-2′-yl)amino)methyl)pyridin-2(1H)-one] | ** (50 to 150-fold selectivity for ROCK2) | 
1 to 9.9 µM | 0.01 to 0.099 µM | Fc1ccnc(CNc2nccc(-c3nccc(C#Cc4ccc5[nH]ncc5c4)n3)n2)c1 [Ex. 10, 4-((1H-Indazol-5-yl)ethynyl)-N-((4-fluoropyridin-2-yl)methyl)-[2,4′-bipyrimidin]-2′-amine] | ** (50 to 150-fold selectivity for ROCK2) | 
1 to 9.9 µM | 0.01 to 0.099 µM | COc1ccccc1CNc1nccc(-c2nccc(C#Cc3ccc4[nH]ncc4c3)n2)n1 [Ex. 18, 4-((1H-Indazol-5-yl)ethynyl)-N-(2-methoxybenzyl)-[2,4′-bipyrimidin]-2′-amine] | ** (50 to 150-fold selectivity for ROCK2) | 
1 to 9.9 µM | 0.1 to 0.99 µM | Fc1cncc(CNc2nccc(-c3nccc(C#Cc4ccc5[nH]ncc5c4)n3)n2)c1 [Ex. 29, 4-((1H-Indazol-5-yl)ethynyl)-N-((5-fluoropyridin-3-yl)methyl)-[2,4′-bipyrimidin]-2′-amine] | * (<50-fold selectivity for ROCK2) | 

Source: US20230295131A1, “INHIBITORS OF RHO-ASSOCIATED COILED-COIL KINASE” (Angion Biomedica Corp., priority 2020, published 2023)
